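Dose response: 5 concentrations. Exposure: 48 h. Format: 96-well plates. Endpoint: linear interpolation; highest concentration if not reached. Definition used: TGI = concentration required for complete inhibition of growth.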
Experiments:
Assay in all cases: DTP human tumour cell line panel, 48 h
[1] = system: SW-620 colon
[2] = system: MOLT-4 leukemia
[3] = system: SNB-19 CNS
[4] = system: A549 NSCLC
[5] = system: NCI/ADR-RES ovarian
[6] = system: M14 melanoma
[7] = system: HT29 colon
[8] = system: SK-MEL-2 melanoma
[9] = system: K-562 leukemia
[10] = system: SR leukemia
[11] = system: HOP-92 NSCLC

**Q.** Which results are given for `CC(C)c1cc(CN(C)C)c(O)c(C(C)(C)C)c1`?
**A.** TGI [1]: 36.4 µM; TGI [2]: 42.5 µM; TGI [3]: 53.4 µM; TGI [4]: 53.1 µM; TGI [5]: > 100 µM; TGI [6]: 78.5 µM; TGI [7]: > 100 µM; TGI [8]: 38.6 µM

**Q.** Which results are given for `Nc1ccc2nc(Nc3ccc(F)cc3)cnc2c1`?
**A.** TGI [1]: > 100 µM; TGI [9]: > 100 µM; TGI [2]: > 100 µM; TGI [3]: > 100 µM; TGI [4]: > 100 µM; TGI [10]: > 100 µM; TGI [6]: > 100 µM; TGI [7]: > 100 µM; TGI [8]: > 100 µM

**Q.** `COc1cc(C)c(/C=C/C(=O)N2C(=O)OC[C@@H]2c2ccccc2)c(C)c1` was tested. Which TGI [1] did it give?
**A.** > 100 µM

**Q.** What about the TGI [9] of the same compound?
**A.** > 100 µM

**Q.** And the TGI [2]?
**A.** 85.8 µM

**Q.** What about the TGI [3] of the same compound?
**A.** > 100 µM

**Q.** And the TGI [4]?
**A.** > 100 µM

**Q.** What about the TGI [5] of the same compound?
**A.** > 100 µM

**Q.** And the TGI [6]?
**A.** > 100 µM

**Q.** What about the TGI [7] of the same compound?
**A.** 63.2 µM

**Q.** What about the TGI [8] of the same compound?
**A.** > 100 µM

**Q.** And the TGI [11]?
**A.** > 100 µM

**Q.** With `Nc1nc(N)c2c(n1)NC(=O)c1c(c3ccccc3n1Cc1ccc(Cl)cc1)C2` as the compound, how does the TGI [1] read?
**A.** > 100 µM

**Q.** And the TGI [9]?
**A.** > 100 µM

**Q.** What about the TGI [2] of the same compound?
**A.** 72 µM

**Q.** What about the TGI [3] of the same compound?
**A.** > 100 µM

**Q.** And the TGI [4]?
**A.** 62.6 µM

**Q.** And the TGI [5]?
**A.** 85.6 µM

**Q.** And the TGI [6]?
**A.** > 100 µM

**Q.** What about the TGI [7] of the same compound?
**A.** > 100 µM

**Q.** And the TGI [8]?
**A.** > 100 µM

**Q.** What about the TGI [11] of the same compound?
**A.** 20.4 µM

**Q.** How did the TGI [1] turn out when `CNC(=O)c1n[nH]nc1Sc1c([N+](=O)[O-])ncn1C` was run?
**A.** > 100 µM

**Q.** And the TGI [9]?
**A.** > 100 µM

**Q.** And the TGI [2]?
**A.** > 100 µM

**Q.** What about the TGI [3] of the same compound?
**A.** > 100 µM

**Q.** What about the TGI [4] of the same compound?
**A.** > 100 µM

**Q.** What about the TGI [5] of the same compound?
**A.** > 100 µM

**Q.** And the TGI [6]?
**A.** > 100 µM

**Q.** What about the TGI [7] of the same compound?
**A.** > 100 µM

**Q.** And the TGI [8]?
**A.** > 100 µM

**Q.** What about the TGI [11] of the same compound?
**A.** > 100 µM

**Q.** Which results are given for `O=C(CCc1ccccc1)ON1C(=S)NC(c2ccccc2)(c2ccccc2)C1=S`?
**A.** TGI [1]: > 100 µM; TGI [9]: > 100 µM; TGI [2]: 75.5 µM; TGI [3]: > 100 µM; TGI [4]: > 100 µM; TGI [5]: > 100 µM; TGI [6]: > 100 µM; TGI [7]: 93.6 µM; TGI [8]: 47.8 µM; TGI [11]: > 100 µM

**Q.** Which results are given for `O=C(CNc1cccc([N+](=O)[O-])c1)Nn1c(-c2ccccc2)nc2ccccc2c1=O`?
**A.** TGI [1]: 2.05 µM; TGI [2]: 0.818 µM; TGI [3]: 4.99 µM; TGI [4]: 4.9 µM; TGI [5]: 1.89 µM; TGI [7]: 1.08 µM

**Q.** Which results are given for `N#Cc1c(Cl)cccc1Oc1ccc(S(=O)(=O)/N=C(\NN)Nc2ccc(Cl)cc2)cc1`?
**A.** TGI [1]: > 100 µM; TGI [9]: > 100 µM; TGI [2]: 34.4 µM; TGI [3]: > 100 µM; TGI [4]: > 100 µM; TGI [5]: > 100 µM; TGI [6]: 52.1 µM; TGI [7]: 96.2 µM; TGI [8]: 46.5 µM; TGI [11]: 54 µM

**Q.** Which TGI [1] does the source give for `c1cc(Sc2nc(Sc3ccncc3)nc(Sc3ccncc3)n2)ccn1` here?
**A.** > 100 µM

**Q.** What about the TGI [9] of the same compound?
**A.** > 100 µM

**Q.** What about the TGI [2] of the same compound?
**A.** > 100 µM

**Q.** What about the TGI [3] of the same compound?
**A.** > 100 µM

**Q.** What about the TGI [4] of the same compound?
**A.** > 100 µM

**Q.** And the TGI [5]?
**A.** > 100 µM

**Q.** And the TGI [6]?
**A.** > 100 µM

**Q.** What about the TGI [7] of the same compound?
**A.** > 100 µM

**Q.** And the TGI [8]?
**A.** > 100 µM

**Q.** What about the TGI [11] of the same compound?
**A.** > 100 µM

**Q.** How did the TGI [1] turn out when `C#CCOc1c(C(=O)OCC)c(=O)n(C)c2ccccc12` was run?
**A.** > 100 µM

**Q.** What about the TGI [9] of the same compound?
**A.** > 100 µM

**Q.** What about the TGI [2] of the same compound?
**A.** > 100 µM

**Q.** And the TGI [3]?
**A.** > 100 µM

**Q.** And the TGI [6]?
**A.** > 100 µM

**Q.** And the TGI [7]?
**A.** > 100 µM

**Q.** And the TGI [8]?
**A.** > 100 µM

**Q.** What about the TGI [11] of the same compound?
**A.** > 100 µM

**Q.** What does the source list for `CC(=O)Nc1ccc(NC(=O)c2c(Cl)c(Cl)c(Cl)c(Cl)c2-c2nc3ccccc3[nH]2)cc1`?
**A.** TGI [1]: > 100 µM; TGI [9]: > 100 µM; TGI [2]: 98.7 µM; TGI [3]: > 100 µM; TGI [4]: > 100 µM; TGI [10]: > 100 µM; TGI [6]: > 100 µM; TGI [7]: > 100 µM; TGI [11]: 71.7 µM

**Q.** What does the source list for `Nc1c2c(=O)[nH]c(=O)c2c(N)c2c(=O)c3ccccc3c(=O)c12`?
**A.** TGI [1]: 4.65 µM; TGI [9]: > 45.9 µM; TGI [2]: > 26.4 µM; TGI [3]: > 57.4 µM; TGI [4]: > 23.1 µM; TGI [5]: 5.9 µM; TGI [6]: 0.88 µM; TGI [7]: 2.83 µM; TGI [8]: 6.2 µM; TGI [11]: 51.9 µM

**Q.** What does the source list for `COC(=O)c1ccccc1C1CN=NC12Cc1ccc(C)c(C)c1C2=O` (stereo not given)?
**A.** TGI [1]: > 100 µM; TGI [9]: > 100 µM; TGI [2]: > 100 µM; TGI [3]: > 100 µM; TGI [4]: > 100 µM; TGI [5]: > 100 µM; TGI [6]: > 100 µM; TGI [7]: > 100 µM; TGI [8]: > 100 µM; TGI [11]: > 100 µM

**Q.** How did the TGI [1] turn out when `Cn1nc2ccc3nccc(N4CCN(CCO)CC4)c3c2n1` was run?
**A.** > 100 µM

**Q.** What about the TGI [9] of the same compound?
**A.** > 100 µM

**Q.** And the TGI [2]?
**A.** > 100 µM

**Q.** And the TGI [3]?
**A.** > 100 µM

**Q.** And the TGI [4]?
**A.** > 100 µM

**Q.** What about the TGI [6] of the same compound?
**A.** > 100 µM

**Q.** What about the TGI [7] of the same compound?
**A.** > 100 µM

**Q.** What about the TGI [8] of the same compound?
**A.** > 100 µM

**Q.** With `O=C1CCC(=O)N1Cc1ccccc1N=[N+]([O-])c1ccccc1CN1C(=O)CCC1=O` as the compound, how does the TGI [1] read?
**A.** > 100 µM

**Q.** What about the TGI [9] of the same compound?
**A.** > 100 µM

**Q.** And the TGI [2]?
**A.** > 100 µM

**Q.** And the TGI [3]?
**A.** > 100 µM

**Q.** What about the TGI [4] of the same compound?
**A.** > 100 µM

**Q.** And the TGI [10]?
**A.** > 100 µM

**Q.** And the TGI [6]?
**A.** > 100 µM

**Q.** And the TGI [7]?
**A.** > 100 µM

**Q.** And the TGI [8]?
**A.** > 100 µM

**Q.** Which TGI [1] does the source give for `N#CN=C(N)NC(=O)/C=C/C=C/c1ccc(Cl)cc1` here?
**A.** > 100 µM

**Q.** And the TGI [9]?
**A.** > 100 µM

**Q.** And the TGI [2]?
**A.** > 100 µM

**Q.** What about the TGI [4] of the same compound?
**A.** > 100 µM

**Q.** And the TGI [10]?
**A.** > 100 µM

**Q.** And the TGI [6]?
**A.** > 100 µM

**Q.** And the TGI [7]?
**A.** > 100 µM

**Q.** And the TGI [8]?
**A.** > 100 µM

**Q.** What about the TGI [11] of the same compound?
**A.** > 100 µM

**Q.** With `CC(C)=NN/C(=N\S(=O)(=O)c1ccc(C)cc1)Nc1ccc(Cl)cc1` as the compound, how does the TGI [1] read?
**A.** > 100 µM

**Q.** And the TGI [9]?
**A.** > 100 µM

**Q.** And the TGI [2]?
**A.** > 100 µM

**Q.** What about the TGI [3] of the same compound?
**A.** > 100 µM

**Q.** And the TGI [4]?
**A.** > 100 µM

**Q.** And the TGI [5]?
**A.** > 100 µM

**Q.** What about the TGI [6] of the same compound?
**A.** > 100 µM

**Q.** And the TGI [7]?
**A.** > 100 µM

**Q.** What about the TGI [8] of the same compound?
**A.** > 100 µM

**Q.** And the TGI [11]?
**A.** > 100 µM

**Q.** For `Nc1nc(N)c(NC(=O)CCCO)c(=O)[nH]1`, which TGI [1] is on record?
**A.** > 100 µM

**Q.** What about the TGI [9] of the same compound?
**A.** > 100 µM

**Q.** What about the TGI [2] of the same compound?
**A.** > 100 µM

**Q.** What about the TGI [3] of the same compound?
**A.** > 100 µM

**Q.** And the TGI [4]?
**A.** > 100 µM

**Q.** And the TGI [5]?
**A.** > 100 µM

**Q.** And the TGI [6]?
**A.** > 100 µM

**Q.** What about the TGI [7] of the same compound?
**A.** > 100 µM

**Q.** And the TGI [8]?
**A.** > 100 µM

**Q.** And the TGI [11]?
**A.** > 100 µM

**Q.** `N#Cc1c(O)c(N=Nc2ccccc2F)c(=O)n2c1[nH]c1ccccc12` was tested. Which TGI [1] did it give?
**A.** > 100 µM

**Q.** And the TGI [9]?
**A.** > 100 µM

**Q.** What about the TGI [3] of the same compound?
**A.** > 100 µM

**Q.** And the TGI [4]?
**A.** > 100 µM

**Q.** And the TGI [5]?
**A.** > 100 µM

**Q.** And the TGI [6]?
**A.** > 100 µM

**Q.** And the TGI [7]?
**A.** > 100 µM

**Q.** And the TGI [8]?
**A.** 57 µM

**Q.** What about the TGI [11] of the same compound?
**A.** 60.3 µM
